# In patent publication US4029807A (priority 1975, dated 1977):
# What was measured:
# [1] = system: patients in depressive phase; conditions: 5 weeks, tablets 20, 50 and 100 mg three times a day; cited from earlier work
# [2] = system: patients affected by Parkinson's disease; conditions: human, in vivo; cited from earlier work
# female mice = test: Irwin's schema (behavioural symptomatology); assay type: in vivo; conditions: for symptomatology of our product observed with comparator: L-glutamic acid and L-5 hydroxytryptophan: separate administration at equimolecular doses
# I.C.R. Swiss albino mice = test: Acute toxicity, intraperitoneal; assay type: in vivo
# Experimental: (§1) The studies of acute toxicity have been made with I.C.R. Swiss albino mice of both sexes. We express the toxicity date with the parameters of lethal dose 16 (LD16), lethal dose 50 (LD50) and lethal dose 84 (LD84), in mg/kg. of weight. The substance was administered intraperitoneally.
# [3] = system: uptake I (presynaptic membrane); conditions: presynaptic membrane level; cited from earlier work
# [4] = clinical use, as described; cited from earlier work
# [5] = Analgesic activity, chemical analgesia; assay type: in vivo
# cerebral serotonin [6] = test: Cerebral serotonin level (inferred from symptomatology of the animals injected); assay type: in vivo; conditions: compared with sole administration of L-5-hydroxytryptophan
# [7] = Analgesic activity, thermal analgesia (hot plate at 55° C.); assay type: in vivo
# [8] = system: responses to serotonin (rat's isolated uterus); test: Antiserotoninic activity, rat's isolated uterus; conditions: 40 mcg/ml
# MAO = conditions: non-hydrazinic MAO inhibitor; cited from earlier work
# [9] = Acute toxicity, intraperitoneal; assay type: in vivo, I.C.R. Swiss albino mice; conditions: mouse, in vivo, ip; mice of both sexes, intraperitoneal
# Experimental: as §1
# cerebral serotonin [10] = conditions: statement without data; cited from earlier work
# depressed patients = conditions: 10-50 mg intravenously, with a monoamino-oxydase inhibitor; cited from earlier work
# depressive patient = conditions: total dose 150 mg, cited from earlier work; for response of depressive symptoms: amitryptiline with anticonvulsivant therapy for two months, 5-hydroxytryptophan 5 days, L-DOPA previously
# serotonin in the brain = conditions: dogs; cited from earlier work
# [11] = system: antidepressive effects of the MAO inhibitors; conditions: in vivo; cited from earlier work
# [12] = cited from earlier work
# [13] = system: serotonin in the brains of rats; conditions: administered at the same time as monoamino-oxydase inhibitors; cited from earlier work
# [14] = Clinical tolerability / adverse effects; conditions: view of the Applicant
# [15] = mice of both sexes, intraperitoneal
molecule,measurement,setting,value
N[C@@H](Cc1c[nH]c2ccc(O)cc12)C(=O)O [L-5-hydroxytryptophan],remission of depressive symptoms,[1],symptoms remitting so rapidly that even the patients themselves were impressed
same,anti-tremor effect,[2],visible anti-tremor effect
same,antidepressive action in Parkinson's disease patients,[2],"intense antidepressive action with improvement of the affective field, of the psychomotor impulse and activation of personal initiative"
same,symptomatology of our product observed with comparator,female mice,not observed
CN(C)CCCN1c2ccccc2CCc2ccccc21 [Imipramine],LD16,I.C.R. Swiss albino mice; [15],33.3 mg/kg
same,LD84,I.C.R. Swiss albino mice; [15],80 mg/kg
same,incorporation blockage (uptake I),[3],produces an incorporation blockage (uptake I) on the presynaptic membrane level
L-5 hydroxytryptophan monohydrate L-glutamate [Our product],duration of symptoms,female mice; 10 mg/kg orally,≥ 120 min
same,onset of symptoms after administration,female mice; 10 mg/kg orally,15 min
same,pharmacological activity compared with each ingredient separately,female mice; equimolecular doses,superior to that of each ingredient separately
same,symptoms (Irwin's schema),"female mice; our product 10 mg/kg orally, female mice 28±2 g","increase in the state of alertness, a reaction to cleanliness and an increase in spontaneous activity, in addition to restlessness and irritability"
same,adverse effects and secondary reactions,[4],No interesting secondary reactions have yet been described
same,analgesic effect compared with dextropropoxyphene,"[5]; 10 mg/kg oral vs dextropropoxyphene 50 mg/kg intraperitoneal, technique (chemical or thermal) not specified",same analgesic effect as dextropropoxyphene
same,"analgesic action, chemical analgesia",[5]; in vivo,significant analgesic action
same,times less toxic than imipramine,I.C.R. Swiss albino mice; from the foregoing table,6 times
same,times less toxic than tranilcypromine,I.C.R. Swiss albino mice; from the foregoing table,300 times
same,LD16,I.C.R. Swiss albino mice; [15],260.5 mg/kg
same,LD50,I.C.R. Swiss albino mice; [15],323 mg/kg
same,LD84,I.C.R. Swiss albino mice; [15],401.4 mg/kg
same,raising of cerebral serotonin levels,cerebral serotonin [6],"raises the levels of cerebral serotonin, in a greater way than the sole administration of L-5-hydroxytryptophan"
same,"analgesic action, hot plate",[7],significant analgesic action
same,inhibition of the responses to serotonin,[8],36%
N[C@@H]1C[C@H]1c1ccccc1 (relative stereo) [Tranilcypromine],inhibition of MAO,MAO,powerful inhibitor of non-hydrazinic MAO
same,symptomatology of our product observed with comparator,female mice,Neither is this symptomatology observed
same,adverse effects and secondary reactions,[4],great amount of adverse effects and secondary reactions
same,LD50,[9],11.3 mg/kg
same,LD16,I.C.R. Swiss albino mice; [15],7.3 mg/kg
same,LD84,I.C.R. Swiss albino mice; [15],18 mg/kg
same,cerebral serotonin raising action compared with our product,cerebral serotonin [10],very inferior to our product
NC(Cc1c[nH]c2ccc(O)cc12)C(=O)O (racemic) [DL-5-OH-tryptophan],improvement of depression,depressed patients,improvement of depression in one day
N[C@@H](Cc1c[nH]c2ccc(O)cc12)C(=O)O [5-hydroxytryptophan],time to disappearance of the depressive symptoms after treatment,depressive patient; 5 days,two
same,response of depressive symptoms,depressive patient,rapid improvement in the state of mind
same,raising of the level of serotonin in the brain,serotonin in the brain,10 times
same,potentiation of the antidepressive effects of the MAO inhibitors,[11],potentiation of the antidepressive effects of the MAO inhibitors has been observed
same,tissue penetration,[12]; animals,rapidly penetrates most tissues
same,conversion into serotonin,[12]; if there is decarboxylase,converted into serotonin
N[C@@H](CCC(=O)O)C(=O)O [L-glutamic acid],symptomatology of our product observed with comparator,female mice,not observed
N[C@@H](Cc1c[nH]c2ccccc12)C(=O)O [tryptophan],potentiation of the antidepressive effects of the MAO inhibitors,[11],potentiation of the antidepressive effects of the MAO inhibitors has been observed
same,increase in brain serotonin with monoamino-oxydase inhibitors,[13],the increase becomes higher
N[C@@H](Cc1ccc(O)c(O)c1)C(=O)O [L-DOPA],response of depressive symptoms,depressive patient,without obtaining any result
CN(C)CCC=C1c2ccccc2CCc2ccccc21 [amitryptiline],response of depressive symptoms,depressive patient,did not produce any positive response
5-hydroxytryptophan glutamate [the product obtained by this method],tolerability,[14],great tolerability
